Results: a melting point compilation (Tetko et al.; mined from patent text by program, amines drawn as free bases though some values may be those of a salt)

melting point [°C]	SMILES
> 260	O=C(O)COc1ccccc1Cn1nc(-c2cccs2)c(Cc2cc3c(cc2Cl)OCO3)c1C(=O)O
178 to 180	COc1ccc(C(=O)Nc2ccc(C)cc2)cc1NC(=S)Nc1cc(Cl)cc(Cl)c1
163 to 165	O=C(NC1=NN(c2ccccc2)CC1)C(F)(F)F
80 to 82	C=CC(=O)NC(C)(C)C(=O)NCC(OC)OC
187 to 189	COc1cn(-c2cccc(N3CCOCC3)c2F)nc(-c2ccnn2-c2ccccc2)c1=O
121 to 123	CCN1c2ncc(CCc3cccc(N)c3)cc2C(=O)N(C)c2ccc(Cl)nc21
242	COc1cc(CC(=O)Nc2ccc(C3CN(C(C)=O)CC3C(=O)O)cc2)ccc1NC(=O)Nc1ccccc1C (stereo unspecified)
220 to 223	CS(=O)(=O)N1CCC(Nc2ncc3cc(Cc4ccccn4)c(=O)n(C4CCCC4)c3n2)CC1
210	Cc1ccc(S(=O)(=O)NC(=O)OCCc2ccc(-n3c(CCC(=O)N4CCCCC4)nc4cc(C(F)(F)F)c(Cl)cc43)cc2)cc1
214 to 215	COC(=O)c1cccc(Nc2nc(N)c(C(=O)c3ccccc3OC)s2)c1
140	Cc1coc2ncnc(NCCc3ccc(Cl)cc3)c12
150 to 151	CCC(C)(C)c1ccc(O)c(C(=O)Nc2ccc([N+](=O)[O-])cc2C)c1
71 to 73	Nc1ccc(CCOCCCCCCNCC(O)c2cc(Cl)c(N)c(Cl)c2)cc1 (stereo unspecified)
245 to 248	O=C1NC(=O)C2(C=CC=C3OCC=C32)N1 (stereo unspecified)
176 to 178	CCc1sc2ccc(C)cc2c1S(=O)(=O)Nc1onc(C)c1Br
196 to 198	O=C(c1oc2ccc(N3CCN(Cc4ccccc4)CC3)cc2c1Br)N(Cc1ccccc1)Cc1ccccc1
117 to 118	Cc1cc(SC(C)C)c(NC(=O)CSc2nc3ccccc3s2)c(SC(C)C)n1
78 to 81	COc1cc(C)c(CCCCCCCCCCCCCCCCCCCCCCO)c(O)c1OC
147 to 148	Cc1ccc(-c2ccc3c(c2)C=C(C(=O)Nc2ccc(CNCc4ccccc4)cc2)CCO3)cc1
130	CC(c1ccc(N)cc1)n1ccnc1 (stereo unspecified)
82 to 84	COc1cc(-c2ccc(C(F)(F)F)cc2)nc(SC)n1
185 to 187	COc1ccnc(CSc2nc3cc4c(cc3[nH]2)OC(F)(F)O4)c1OC
> 300	c1cc(-c2nc3c4c(ncc3[nH]2)CCOC4)no1

melting point [°C]	SMILES
274 to 277	O=S(=O)(Nc1ccccc1)c1ccc(-c2cnn3c(O)ncnc23)cc1
123 to 125	COc1ccc(NC(=O)N2C(=O)CC(c3ccc(OC)c(OC4CCCC4)c3)N2C)cc1 (stereo unspecified)
154 to 158	CCOC(=O)CCNC(=O)C(Cc1ccc(-c2ccccc2)cc1)N(CP(=O)(O)O)C(OC(=O)CC)C(C)C (stereo unspecified)
71.5 to 72.5	CCOC(=O)C(CC(=S)c1ccc(-c2ccccc2)cc1)SC(C)=O (stereo unspecified)
150	CCOC(c1ccccc1)(c1ccccc1)c1ncn(S(=O)(=O)N(C)C)c1C
123	CC(=O)NCc1nc(NCCCOc2cccc(CN3CCCCC3)c2)n(C)n1
48 to 49	CCCCC1=CC(=C(Br)Br)OC1=O
202	CCOC(=O)CCc1cc2c(Nc3ccc4[nH]ccc4c3)c(C#N)cnc2s1
218 to 220	CNC(=O)c1cc(-c2ccc(S(C)=O)cc2)c(-c2ccc(F)cc2)s1 (stereo unspecified)
170	Cc1cc(OCc2nc(-c3ccc(C(F)(F)F)cc3)no2)ccc1OC(C)(C)C(=O)O
145 to 147	CNC(=O)C1(CCCN2CCCCC2)CC=CCC1c1ccccc1 (stereo unspecified)
216 to 217	Cc1ccccc1C(=O)CCc1c(C(=O)N2CCCC2)cc2c(nc(C)n2C)c1O
115	Cc1ccc(S(=O)(=O)N2[C@@H](c3noc(C)n3)CC[C@H]2c2ccc(F)cc2)cc1 (racemic)
77 to 82	COC(=O)Cc1cccc(CCN(C)CCCC(C#N)(c2ccc(OC)c(OC)c2)C(C)C)c1 (stereo unspecified)
97 to 98	Cc1ccc(N=CN(C)SN(C2CCCCC2)C2CCCCC2)c(C)c1
73 to 75	FC(F)(F)c1ccccc1-c1nnc(Nc2cccc(SCc3ccccc3-c3ccccc3)c2)s1
213 to 215	N#Cc1ccc(N2CCN(Cc3cnc4c(c3)NC(=O)[C@@H]3CCCN43)CC2)c(Cl)c1
146	O=c1ncc(Cl)cn1COc1ccccc1
113 to 114	CN(C)C(=N)Nc1ccccc1-c1cccc(S(C)(=O)=O)c1
167 to 168	OCCNc1nc(Cl)nc2c1ncn2C1CC(O)C(CO)O1 (stereo unspecified)
146 to 148	CCOC(=O)C(=O)Nc1coc2ccccc2c1=O
72 to 73	O=C1NCCc2ccc(OCCCCN3CCN(c4cccc5c4OCC5)CC3)nc2N1
244 to 247	O=C1c2cccc3cc(F)cc(c23)C(=O)N1O

melting point [°C]	SMILES
105 to 110	COCCOc1cc2ncc(C#N)c(Nc3ccc4cn[nH]c4c3)c2cc1OCCOC
202 to 204	Cc1nc(NC(=O)N(C)C)sc1C
135 to 136	Cc1nccc(N2CCC(CN3CCN(S(=O)(=O)c4ccc(C(F)(F)F)cc4)CC3)CC2)n1
117 to 121	O=C(CCCCCCn1ccc2ccc([N+](=O)[O-])cc21)NS(=O)(=O)c1ccccc1
293 to 295	COc1ccc2c(c1)c1c3c(c(-c4ccccc4Cl)cc1n2CCC(=O)NS(C)(=O)=O)C(=O)NC3=O
182 to 184	O=C(Nc1ccc(OCc2ccncc2)c2ccccc12)c1cc(F)cc(OC2CCOCC2)c1
107 to 109	COc1cc(OC)c2c(=O)[nH]c(-c3cc(C)cc(OCCO)c3)nc2c1
305	CCCCCC(=O)Nc1ccc(C(=O)NN=C2C(=O)Nc3ccc(I)cc32)cc1
> 250	N#CNC1NN=C(c2ccc3ccccc3c2)O1 (stereo unspecified)
128 to 133	CC(C)(C)c1cc(SC2CC(=O)N(c3ccccc3N3C(=O)CC(Sc4cc(C(C)(C)C)c(O)c(C(C)(C)C)c4)C3=O)C2=O)cc(C(C)(C)C)c1O (stereo unspecified)
176 to 177	COc1ccc(CCCC(=O)Nc2ncc([N+](=O)[O-])s2)cc1
172 to 174	C=CCc1cc(C(C)=O)c(NC(C)=O)cc1O
209	COc1ccc(Nc2nc(N)nc3[nH]c4ccccc4c23)cc1
202 to 204	Cn1ncc2c1-c1c(Oc3cccnc3OCCN3CCCC3=O)sc(C(=O)O)c1CC2
268 to 270	CC(C)(C)c1ccc(-c2ccc(N3CCCN(c4ccc(-c5ccc(C(C)(C)C)cc5)cn4)CC3)nc2)cc1
95 to 96	Cn1cccc1C1=CC(=O)c2ccccc2C1=O
140 to 143	S=C(Nc1ccc(Cl)cc1)Nc1ncccc1OCc1ccccc1
144 to 145	CCNC(=O)CNc1c(C#N)cnn1-c1ccc(C(F)(F)F)cc1Cl
> 280	O=c1c(Br)c(O)c2cccnc2n1-c1ccccc1
231 to 233	CN(CCF)c1ccc2cc(-c3nc4ccccc4s3)c(=O)oc2c1
198 to 200	CC(=O)Cc1cccc2c1C(=O)c1ccccc1C2=O
110	CCOC(=O)C(=NOCCI)c1csc(NC(c2ccccc2)(c2ccccc2)c2ccccc2)n1
105 to 106	CCSc1c(N)cnc2cc(Cl)ccc12

melting point [°C]	SMILES
350 to 370	Cc1c(-c2cccc(C#N)c2F)sc2nc(N)[nH]c(=O)c12
117 to 118	COc1ccc(C(=O)c2ccncc2)cc1OC
41 to 42.5	CCCCCCCCCCOc1ccc(CO)cc1OCCCCCCCCCC
133 to 134	Cn1c(C(F)(F)F)cc(=O)n(-c2ncc(Cl)cc2F)c1=O
103	CC(C)Nc1cccnc1N1CCN(C(=O)c2ccc(C(=O)NCCCN3CCOCC3)cc2)CC1
146	CC(C)(C)N(CC(=O)Nc1n[nH]c(=S)s1)C(=O)C(Cc1ccc(OCc2ccccc2)cc1)NC(=O)OCc1ccccc1 (stereo unspecified)
185 to 188	CC(C)(C#N)c1cc(C(C)(C)C#N)cc(C(C)(C)n2cncn2)c1
150 to 151	CCCCc1ccc(CCCCSCc2cccc(/C=C/c3cccc(NC(=O)CC(CC)(CC)C(=O)O)c3)n2)cc1
163 to 164	C=CCOc1ccc(C(=O)O)cc1
95 to 97	O=c1c2cn(S(=O)(=O)CCCCl)nc2n(CC2CC2)c(=O)n1CC1CC1
163	CC#CCOc1ccc(SC(C(=O)NO)C2CCCCC2)cc1 (stereo unspecified)
> 280	NC(=O)NCc1ccc(Nc2n[nH]c3ncnc(Nc4cccc(Cl)c4)c23)cc1
58 to 60	O=C(N1CCOc2ccccc21)C(F)(F)F
214	CCOC(=O)C1=C(C)Nc2nc(N3CCOCC3)nc(N3CCOCC3)c2C1c1ccccc1C(F)(F)F (stereo unspecified)
206 to 207	CC1(C)CCC(C)(C)c2cc(NC(=O)c3ccc(C(=O)O)cn3)ccc21
106 to 108	O=C(Nc1ccc(Oc2ccnc(N3CCC(O)CC3)n2)c2ccccc12)c1cc(F)cc(N2CCOCC2)c1
118 to 124	CCOc1ccccc1OCCNC(C)Cc1ccc(OC)c(S(N)(=O)=O)c1 (stereo unspecified)
164 to 166	O=C(O)c1cc(OCc2ccccc2)c(Cc2ccccc2)c(S(=O)(=O)Cl)c1
120 to 124	CCCCC(Cc1cc(C(C)(C)C)c(O)c(C(C)(C)C)c1)(C(=O)OC1CC(C)(C)N(C(C)=O)C(C)(C)C1)C(=O)OC1CC(C)(C)N(C(C)=O)C(C)(C)C1
255 to 257	O=c1[nH]nc2ccc(-c3ccccc3)nn12
238 to 240	Cc1cccc(Cl)c1C(=O)N[C@@H](Cc1ccc(-c2c(C)n(C)c(=O)n(C)c2=O)cc1)C(=O)O

SMILES	melting point [°C]
CNC(=N[N+](=O)[O-])SC	150 to 152
c1ccc2c(c1)Cn1cccc1C1(CCNCC1)O2	168 to 170
Cc1ccccc1-c1ccc2c(c1)c(C(=O)C(=O)O)cn2Cc1ccc(C(C)(C)C)cc1	97 to 98
CC(=Cc1c(Cl)cccc1Cl)[N+](=O)[O-]	49 to 50
Cc1cc2cc(N=[N+]=[N-])ccc2[nH]1	57 to 60
CNCCc1cc(Br)cc(-c2sccc2C)c1N	68 to 70
